The text below walks through data of paper PMC8811960, “A Novel 2-Carbon-Linked Dimeric Artemisinin With Potent Antileukemic Activity and Favorable Pharmacology” (Frontiers in Oncology, 2022).

One series has as its system MOLM14 AML xenografts. Nature of the series: luc-labeled MOLM14 AML cell line xenograft. The class given is in vivo, NRG mice. The conditions noted are these: 15 mg/kg/d PO, 5 days on, 9 days off, 5 cycles. The text has this: Immunodeficient NOD-Rag1^nullIL2rg^null (NRG) mice were purchased from Jackson Laboratory (Bar Harbor, ME), bred and housed at the University of Maryland Baltimore. Similar to our previous publication ([20]). mice were transplanted IV with luc-labeled human AML cell lines or cryopreserved AML patient cells on day -10, and baseline total body luminescence was quantified on day 0 by Xenogen bioluminescence imaging (Xenogen IVIS Spectrum; PerkinElmer, Waltham, MA). Mice were allocated to treatment groups so that each group had similar average day 0 luminescence, then groups were administered drugs per oral (PO; gavage). Luminescence of each mouse was assessed over time and compared with that mouse’s day 0 luminescence (fold-change AML burden). Clinical behavior, appearance, weight, and survival were also monitored.
Using our previously determined 5-day MTD SAV drug schedule (i.e. 5-day treatment cycles consisting of 15 mg/kg/d ART631 combined with 150 mg/kg/d VEN and 30 mg/kg/d SOR, followed by 9 days off drug; schematic in Figure 7A ), we assessed treatment of established human luc-labeled MV4;11 ( Figures 7B–D ) and MOLM14 AML ( Figures 8A–C ) cell line xenografts with VEN plus SOR plus ART631 in NRG mice ( Figures 7B , 8A ). […]

Another series has as its system ML2. In words: alamarBlue growth inhibition, ML2. In kind it is cell-based. The conditions noted are these: Homo sapiens, ML-2, ML2, 48h, mean of 2 independent assays ± SD. Here is the method: (§1) Cytotoxicity was assessed using alamarBlue assays (Life Technologies, Grand Island, NY) following manufacturer’s guidelines. Cell death was verified by Annexin V/7-aminoactinomycin D (7AAD) staining (BioLegend, San Diego, CA) per manufacturer’s guidelines.
A general note: The colour change of resazurin is a common sign of viable cells or microbes.

The test system of the next series is K562. Nature of the series: alamarBlue growth inhibition, K562. The conditions noted are these: Homo sapiens, K562, 48h, mean of 2 independent assays ± SD. The class given is cell-based. Here is the method:
as §1

In a further series the test system is KG1a. In words: alamarBlue growth inhibition, KG1a. The class given is cell-based. The conditions noted are these: Homo sapiens, KG-1a, 48h, mean of 2 independent assays ± SD. Here is the method: as §1
Another series can be described thus: Stability in plasma. In kind it is in vitro ADME, human and mouse. The conditions noted are these: species not given. Here is the method:
The metabolic stability of ART631 was assessed in human and mouse plasma and liver microsomes (LM). For phase I microsomal stability assays, analogs (10 µM in <1% acetonitrile) were incubated in PBS containing liver microsomes, with or without cofactors ([22]). Microsomal controls (without cofactors) were used to determine non-enzymatic degradation. All experiments were incubated at 37°C for 1h and performed in duplicate. Reactions were stopped with acetonitrile and analyzed as described below.
We compared the in vitro stability of ART576 and ART631 ( Table 3 ). ART576 was stable in plasma (<10% degradation), but unstable with degradation of >70% in human liver microsomes with co-factors and >90% in mouse liver microsomes with co-factors ( Table 3 ).

Molecules are shown by their SMILES.

For the molecule `C=CCO/N=C(/C[C@H]1O[C@@H]2O[C@@]3(C)CC[C@H]4[C@H](C)CC[C@@H]([C@H]1C)[C@@]24OO3)[C@H]1O[C@@H]2O[C@@]3(C)CC[C@H]4[C@H](C)CC[C@@H]([C@H]1C)[C@@]24OO3` [ART631], the “antileukemic activity of monotherapy” value in the series on MOLM14 AML xenografts is “no activity”. Further, the IC50 is 34 ± 4 nM with ML2, over 1000 nM with K562 and 29 ± 2 nM with KG1a. The molecule also yielded a degradation in plasma in “Stability in plasma” of over 40%.

For orientation: IC50 means the concentration that inhibits the measured activity by half. Low readings indicate greater potency, high ones weaker potency.
